For this assay, the system named is TT (RET C634W) cells. Description: Cell proliferation assay (MTS), TT cells. The following applies: Homo sapiens, TT, 72 h, 72 h incubation, MTS readout. It is filed as cell-based. Here is the method:
MTS testing kit was purchased from Promega. The RPMI-1640, F12, F12K, Fetal bovine serum and Penicillin-Streptomycin were purchased from BI. Glutamine and Dimethyl sulfoxide (DMSO) were purchased from Sigma. TT cells were cultured in F12K supplemented with 10% FBS and LC-2/ad cells were cultured in HamF12: RPMI1640 (1:1) supplemented with 10% FBS and 2 mM Glutamine.
To investigate whether a compound is able to inhibit the activity of RET fusion and/or mutation in cells, a mechanism-based assay using TT (RET C634W) and LC-2/ad (CCDCl6-RET) cell lines was developed. In this assay, the inhibition of RET fusion and/or mutation was reflected by the inhibition of cell proliferation of TT and LC-2/ad cells. Cells were plated into 96-well plates at the optimized cell density (TT: 5000 cells/well; LC-2/ad: 5000 cells/well). Plates were incubated at 37° C., with 5% CO2 for 24 h. Compounds were serially diluted and added to the plates with the final concentrations as 10000, 3333.3, 1111.1, […], 123.5, 41.2, 13.7, 4.6 and 1.5 nM. Plates were incubated at 37° C., with 5% CO2 for 72 h. An aliquot of 20 μL MTS/100 μL medium mixture solution were added to each well and the plates were incubated for exactly 2 h. The reaction was stopped by adding 25 μL 10% SDS to each well. The absorbance was measured by a microplate reader at 490 nm and 650 nm (reference wavelength). IC50 was calculated using GraphPad Prism 5.0.

SMILES strings stand for the structures.

Regarding `C#Cc1ccc(OC2CCN(c3ccc(-c4cc(OCC5(O)CC5)cc5ncc(C#N)n45)cn3)CC2)cn1` [Example 81, 5-(6-(4-((6-ethynylpyridin-3-yl)oxy)piper-idin-1-yl)pyridin-3-yl)-7-((1-hydroxycyclo-propyl)methoxy)imidazo-[1,2-a]pyridine-3-carbonitrile], the IC50 is 0.005 µM.

The molecule `C=Cc1ccc(OC2CCN(c3ccc(-c4cc(OCC(C)(C)O)cc5ncc(C#N)n45)cn3)CC2)cn1` [Example 82, 7-(2-hydroxy-2-methylpropoxy)-5-(6-(4-((6-vinylpyridin-3-yl)oxy)piperidin-1-yl)pyridin-3-yl)imidazo[1,2-a]pyridine-3-car-bonitrile] had an IC50 of 0.015 µM.

Take `C=Cc1ccc(OC2CCN(c3ccc(-c4cc(OCC5(O)CC5)cc5ncc(C#N)n45)cn3)CC2)cn1` [Example 83, 7-((1-hydroxycyclopropyl)methoxy)-5-(6-(4-((6-vinylpyridin-3-yl)oxy)piperidin-1-yl)pyridin-3-yl)imidazo[1,2-a]pyridine-3-carbonitrile]: half-maximal inhibition (IC50) was put at 0.017 µM.

`CC(C)(O)COc1cc(-c2ccc(N3CCC(Oc4ccc(OC5CC5)nc4)CC3)nc2)n2c(C#N)cnc2c1` [Example 84, 5-(6-(4-((6-cyclopropoxypyridin-3-yl)oxy)piperidin-1-yl)pyridin-3-yl)-7-(2-hydroxy-2-methylpropoxy)imidazo[1,2-a]pyri-dine-3-carbonitrile] showed an IC50 of 0.021 µM.

Regarding `N#Cc1cnc2cc(OCC3(O)CC3)cc(-c3ccc(N4CCC(Oc5ccc(OC6CC6)nc5)CC4)nc3)n12` [Example 85, 5-(6-(4-((6-cyclopropoxypyridin-3-yl)oxy)piperidin-1-yl)pyridin-3-yl)-7-((1-hy-droxycyclopropyl)methoxy)imidazo[1,2-a] pyridine-3-carbonitrile], the midpoint of inhibition, the IC50, lay at 0.012 µM.

Molecule `COc1ncc(OC2CCN(c3ccc(-c4cc(OCC5(O)CC5)cc5ncc(C#N)n45)cn3)CC2)cc1F` [Example 87, 5-(6-(4-((5-fluoro-6-methoxypyridin-3-yl)oxy)piperidin-1-yl)pyridin-3-yl)-7-((1-hydroxycyclopropyl)methoxy)imidazo[1,2-a]pyridine-3-carbonitrile] showed an IC50 of 0.038 µM.

Take `CCOc1ccc(OC2CCN(c3ccc(-c4cc(OCC(C)(C)O)cc5ncc(C#N)n45)cn3)CC2)cn1` [Example 88, 5-(6-(4-((6-ethoxypyridin-3-yl)oxy)piperi-din-1-yl)pyridin-3-yl)-7-(2-hydroxy-2-meth-ylpropoxy)imidazo[1,2-a]pyridine-3-car-bonitrile]: the midpoint of inhibition, the IC50, lay at 0.002 µM.

On to `COc1ccc(O[C@H]2CCN(c3ccc(-c4cc(OCC(C)(C)O)cc5ncc(C#N)n45)cn3)C2)cn1` [Example 89, (S)-7-(2-hydroxy-2-methylpropoxy)-5-(6-(3-((6-methoxypyridin-3-yl)oxy)pyrrolidin-1-yl)pyridin-3-yl)imidazo[1,2-a]pyridine-3-carbonitrile], for which the IC50 turned out to be 0.045 µM.

As to `COc1ccc(O[C@H]2CCN(c3ccc(-c4cc(OCC5(O)CC5)cc5ncc(C#N)n45)cn3)C2)cn1` [Example 90, (S)-7-((1-hydroxycyclopropyl)methoxy)-5-(6-(3-((6-methoxypyridin-3-yl)oxy)pyr-rolidin-1-yl)pyridin-3-yl)imidazo[1,2-a] pyridine-3-carbonitrile], the IC50 was 0.013 µM.

As to `COc1ccc(OC2CN(c3ccc(-c4cc(OCC5(O)CC5)cc5ncc(C#N)n45)cn3)C2)cn1` [Example 92, 7-((1-hydroxycyclopropyl)methoxy)-5-(6-(3-((6-methoxypyridin-3-yl)oxy)azetidin-1-yl)pyridin-3-yl)imidazo[1,2-a]pyridine-3-carbonitrile], the IC50 amounted to 0.087 µM.

Turning to `COc1ccc(OC2CN(c3ccc(-c4cc(OCC(C)(C)O)cc5ncc(C#N)n45)cn3)C2)cn1` [Example 93, 7-(2-hydroxy-2-methylpropoxy)-5-(6-(3-((6-methoxypyridin-3-yl)oxy)azetidin-1-yl)pyridin-3-yl)imidazo[1,2-a]pyridine-3-carbonitrile], the IC50 is 0.039 µM.

As usually defined, the IC50 is the concentration at which inhibition is half-maximal. Read a low IC50 as greater potency in that assay.
